Earlier results as cited in patent US11478463B2, “Mast cell stabilizers for treatment of chronic inflammatory conditions” (Emergo Therapeutics, Inc., priority 2016, dated 2022).

How the values were obtained:
[1] = patients
[2] = ketotifen 2 mg per dose, twice daily
[3] = in vivo

Structure (SMILES) | drowsiness [1] | steady state level [2] [ng/mL] | time to approach steady state level [2] | half-life relative to ketotifen [3]
CN1CCC(=C2c3ccccc3CC(=O)c3sccc32)CC1 [ketotifen] | causes extreme drowsiness in many patients | ~2 | at least 2.5 days | –
O=C1Cc2ccccc2C(=C2CCNCC2)c2ccsc21 [norketotifen] | does not cause drowsiness | – | – | longer half-life than ketotifen
